Measured values published in ChEMBL document CHEMBL1153827, “Novel aminopeptidase N inhibitors derived from antineoplaston AS2-5 (Part II)” (Bioorg Med Chem, 2009).

Legend:
Aminopeptidase N = target: T1, Aminopeptidase N (Sus scrofa, UniProt P15145); assay: Inhibition of pig kidney microsomal aminopeptidase N after 30 mins by UV-VIS spectrophotometry
T1 sequence (P15145 whole entry): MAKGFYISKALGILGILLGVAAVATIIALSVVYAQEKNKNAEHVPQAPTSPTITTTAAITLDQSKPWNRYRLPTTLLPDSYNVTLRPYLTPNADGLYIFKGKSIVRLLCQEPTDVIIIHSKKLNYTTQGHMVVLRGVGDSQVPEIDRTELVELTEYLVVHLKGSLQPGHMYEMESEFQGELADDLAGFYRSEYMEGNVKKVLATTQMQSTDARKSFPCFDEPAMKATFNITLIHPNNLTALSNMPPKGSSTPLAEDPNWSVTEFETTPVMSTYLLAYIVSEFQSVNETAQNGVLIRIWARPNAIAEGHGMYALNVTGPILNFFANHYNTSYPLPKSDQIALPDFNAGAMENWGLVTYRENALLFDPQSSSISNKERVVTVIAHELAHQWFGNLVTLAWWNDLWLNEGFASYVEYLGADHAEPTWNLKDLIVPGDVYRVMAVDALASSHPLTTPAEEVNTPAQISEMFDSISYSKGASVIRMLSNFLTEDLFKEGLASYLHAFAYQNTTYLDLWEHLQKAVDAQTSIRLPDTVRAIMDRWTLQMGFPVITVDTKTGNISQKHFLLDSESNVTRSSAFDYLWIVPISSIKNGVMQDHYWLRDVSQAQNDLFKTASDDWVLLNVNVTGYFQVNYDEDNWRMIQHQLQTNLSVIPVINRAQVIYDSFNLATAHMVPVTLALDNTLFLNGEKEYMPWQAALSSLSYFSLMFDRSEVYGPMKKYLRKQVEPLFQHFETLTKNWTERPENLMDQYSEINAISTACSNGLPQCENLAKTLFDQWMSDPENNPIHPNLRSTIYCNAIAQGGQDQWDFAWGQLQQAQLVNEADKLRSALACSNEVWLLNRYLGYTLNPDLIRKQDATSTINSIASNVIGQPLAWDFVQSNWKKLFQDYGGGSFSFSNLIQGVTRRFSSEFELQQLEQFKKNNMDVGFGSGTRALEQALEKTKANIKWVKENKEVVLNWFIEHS

[1] = target: 72 kDa type IV collagenase (Homo sapiens, UniProt P08253); assay: Inhibition of MMP2
Sequence of 72 kDa type IV collagenase (P08253 whole entry): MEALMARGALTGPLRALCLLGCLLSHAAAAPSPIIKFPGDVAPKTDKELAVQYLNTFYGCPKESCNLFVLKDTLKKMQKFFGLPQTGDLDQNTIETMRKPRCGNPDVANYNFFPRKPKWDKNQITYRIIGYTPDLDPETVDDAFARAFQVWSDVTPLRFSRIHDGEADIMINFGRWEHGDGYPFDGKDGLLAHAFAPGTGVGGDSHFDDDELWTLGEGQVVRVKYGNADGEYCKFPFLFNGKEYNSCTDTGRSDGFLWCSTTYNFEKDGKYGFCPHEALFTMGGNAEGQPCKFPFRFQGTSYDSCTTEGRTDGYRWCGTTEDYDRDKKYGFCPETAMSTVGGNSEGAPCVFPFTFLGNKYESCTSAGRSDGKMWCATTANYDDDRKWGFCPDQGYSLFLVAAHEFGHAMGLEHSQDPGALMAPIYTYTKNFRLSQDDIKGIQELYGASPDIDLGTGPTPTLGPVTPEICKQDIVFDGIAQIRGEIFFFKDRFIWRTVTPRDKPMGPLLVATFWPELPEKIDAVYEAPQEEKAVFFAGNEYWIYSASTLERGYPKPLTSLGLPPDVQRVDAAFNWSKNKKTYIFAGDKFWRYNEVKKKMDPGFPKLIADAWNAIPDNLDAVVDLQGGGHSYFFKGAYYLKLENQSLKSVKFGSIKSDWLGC

Row | Compound | IC50 (Aminopeptidase N; read-out: IC50) [µM] | IC50 ([1]; read-out: IC50) [µM] | IC50 (Aminopeptidase N) | IC50 [1]
1 | COC(=O)CC(NC(=O)CC[C@H](NC(=O)/C=C/c1ccc(OC)c(OC)c1)C(=O)NC(CC(=O)OC)C(=O)OC)C(=O)OC (stereo not given in full) | 213 | 341 | – | –
2 | COc1ccc(/C=C/C(=O)N[C@@H](CCC(=O)O)C(=O)Nc2cc(F)cc(F)c2)cc1OC | 98.6 | 116 | – | –
3 | COc1ccc(/C=C/C(=O)N[C@@H](CCC(=O)O)C(=O)Nc2ccccc2F)cc1OC | 56.8 | 71.4 | – | –
4 | COc1ccc(/C=C/C(=O)N[C@@H](CCC(=O)O)C(=O)Nc2ccccc2Cl)cc1OC | 38.3 | 64.3 | – | –
5 | COc1ccc(/C=C/C(=O)N[C@@H](CCC(=O)O)C(=O)Nc2cccc(Cl)c2)cc1OC | 80.5 | 121 | – | –
6 | COc1ccc(/C=C/C(=O)N[C@@H](CCC(=O)O)C(=O)Nc2ccc(C)cc2)cc1OC | 20.7 | 37.8 | – | –
7 | COc1ccc(/C=C/C(=O)N[C@@H](CCC(=O)O)C(=O)Nc2ccc(F)cc2)cc1OC | 23.4 | 47.6 | – | –
8 | COc1ccc(/C=C/C(=O)N[C@@H](CCC(=O)Nc2cc(F)cc(F)c2)C(=O)Nc2cc(F)cc(F)c2)cc1OC | – | – | Not Active | Not Active
9 | COc1ccc(/C=C/C(=O)N[C@@H](CCC(=O)Nc2ccc(C)cc2)C(=O)Nc2ccc(C)cc2)cc1OC | 335 | 398 | – | –
10 | COc1ccc(/C=C/C(=O)N[C@@H](CCC(=O)Nc2ccc(F)cc2)C(=O)Nc2ccc(F)cc2)cc1OC | 371 | 368 | – | –
11 | COC(=O)CNC(=O)[C@H](CCC(=O)O)NC(=O)/C=C/c1ccc(OC)c(OC)c1 | 50.4 | 79.6 | – | –
12 | COC(=O)C(C)NC(=O)[C@H](CCC(=O)O)NC(=O)/C=C/c1ccc(OC)c(OC)c1 (stereo not given in full) | 55.1 | 83.2 | – | –
13 | COc1ccc(/C=C/C(=O)N[C@@H](CCC(=O)O)C(=O)NCC(C)C)cc1OC | 207 | 256 | – | –
14 | COc1ccc(/C=C/C(=O)N[C@@H](CCC(=O)Nc2ccc(Cl)cc2)C(=O)Nc2ccc(Cl)cc2)cc1OC | 405 | 471 | – | –
15 | COc1ccc(/C=C/C(=O)N[C@@H](CCC(=O)Nc2ccc(Br)cc2)C(=O)Nc2ccc(Br)cc2)cc1OC | 578 | – | – | Not Active
16 | COc1ccc(/C=C/C(=O)N[C@@H](CCC(=O)Nc2ccccc2F)C(=O)Nc2ccccc2F)cc1OC | 405 | 471 | – | –
17 | COc1ccc(/C=C/C(=O)N[C@@H](CCC(=O)O)C(=O)NCc2ccccc2)cc1OC | 178 | 236 | – | –
18 | CNC(=O)[C@H](CCC(=O)O)NC(=O)/C=C/c1ccc(OC)c(OC)c1 | 126 | 159 | – | –
19 | CCNC(=O)[C@H](CCC(=O)O)NC(=O)/C=C/c1ccc(OC)c(OC)c1 | 184 | 211 | – | –
20 | CCCNC(=O)[C@H](CCC(=O)O)NC(=O)/C=C/c1ccc(OC)c(OC)c1 | 237 | 284 | – | –
21 | COC(=O)C(NC(=O)[C@H](CCC(=O)O)NC(=O)/C=C/c1ccc(OC)c(OC)c1)C(C)C (stereo not given in full) | 69.2 | 76.8 | – | –
22 | COc1ccc(/C=C/C(=O)N[C@@H](CCC(=O)O)C(=O)Nc2ccc(Br)cc2)cc1OC | 58.1 | 71.2 | – | –
23 | COc1ccc(/C=C/C(=O)N[C@@H](CCC(=O)O)C(=O)Nc2ccc(Cl)cc2)cc1OC | 34.5 | 59.9 | – | –
24 | COC(=O)CC(NC(=O)[C@H](CCC(=O)O)NC(=O)/C=C/c1ccc(OC)c(OC)c1)C(=O)OC (stereo not given in full) | 60.5 | 101 | – | –
25 | COC(=O)C(Cc1ccc(F)cc1)NC(=O)[C@H](CCC(=O)O)NC(=O)/C=C/c1ccc(OC)c(OC)c1 (stereo not given in full) | 43.7 | 76.5 | – | –
